Laboratory results as given in US12570642B2, “GLP-IR modulating compounds” (Gilead Sciences, Inc., priority 2021, dated 2026).

Target: GLP-1R (Homo sapiens, UniProt P43220)
Assay: GLP-1R Activation - cAMP Assay
Assay type: cell-based
Conditions: cAMP increase in CHO cells stably expressing GLP-1R; each compound run on one of the two cAMP assays (Assay 1 or Assay 2, not specified)
Outline: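 cAMP rise read by HTRF after 30 min agonist exposure (10-point titration, 37 °C) in HBSS/20 mM Hepes/0.1% BSA, following 1 h pre-incubation. Cells: stable GLP-1R CHO line, 1,000/well, seeded overnight. Sigmoidal fit of response vs log concentration gives EC50.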

Sequence of GLP-1R (P43220 24-463): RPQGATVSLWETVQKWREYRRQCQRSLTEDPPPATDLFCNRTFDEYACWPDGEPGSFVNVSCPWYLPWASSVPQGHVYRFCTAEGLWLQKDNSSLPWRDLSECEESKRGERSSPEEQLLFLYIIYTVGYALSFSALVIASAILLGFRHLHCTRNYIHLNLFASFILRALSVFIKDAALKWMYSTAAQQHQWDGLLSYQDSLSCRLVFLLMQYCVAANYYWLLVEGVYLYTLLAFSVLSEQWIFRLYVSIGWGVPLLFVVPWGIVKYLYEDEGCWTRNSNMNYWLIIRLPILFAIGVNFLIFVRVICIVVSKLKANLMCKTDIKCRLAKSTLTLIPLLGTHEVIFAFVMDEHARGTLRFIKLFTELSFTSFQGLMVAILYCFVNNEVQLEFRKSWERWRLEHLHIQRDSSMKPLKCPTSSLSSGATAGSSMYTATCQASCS

Structure (SMILES)	EC50 [nM]
CC(C)(O)C#Cc1cc(C(=O)O)cc2c1nc(Cc1cc(F)c(-c3cccc(OCc4ccc(C#N)cc4F)n3)cc1F)n2C1COCC1(C)C (centres unmarked) [Example 47]	0.78
CC1(C)COC[C@H]1n1c(Cc2ccc(-c3ccc(F)c(OCc4ccc(C#N)cc4F)n3)cc2)nc2ccc(C(=O)O)cc21 [Example 277, (S)-2-(4-(6-((4-cyano-2-fluorobenzyl)oxy)-5-fluoropyridin-2-yl)benzyl)-1-(4,4-dimethyltetrahydrofuran-3-yl)-1H-benzo[d]imidazole-6-carboxylic acid]	0.34
COCCn1c(Cc2cc(F)c(-c3cccc(OCc4cnc(-c5cnn(C(F)F)c5)cn4)n3)cc2F)nc2ccc(C(=O)O)cc21 [Example 36]	1.04
N#Cc1ccc(COc2cccc(-c3cc(F)c(Cc4nc5ccc(C(=O)O)cc5n4[C@@H]4CO[C@@H]5CNC[C@H]45)cc3F)n2)c(F)c1 [Example 80, 2-(4-(6-((4-cyano-2-fluorobenzyl)oxy)pyridin-2-yl)-2,5-difluorobenzyl)-1-((3S,3aR,6aS)-hexahydro-2H-furo[2,3-c]pyrrol-3-yl)-1H-benzo[d]imidazole-6-carboxylic Acid]	4.91
COCCn1c(Cc2cc(F)c(-c3cccc(OCc4ccc(-c5cnn(C(F)F)c5)nc4)n3)cc2F)nc2ccc(C(=O)O)cc21 [Example 109, 2-(4-(6-((6-(1-(difluoromethyl)-1H-pyrazol-4-yl)pyridin-3-yl)methoxy)pyridin-2-yl)-2,5-difluorobenzyl)-1-(2-methoxyethyl)-1H-benzo[d]imidazole-6-carboxylic Acid]	2.51
N#Cc1ccc(COc2cccc(-c3cc(F)c(Cc4nc5ccc(C(=O)O)cc5n4[C@@H]4COC[C@H]4F)cc3F)n2)c(F)c1 (racemic) [Example 77, 2-(4-(6-((4-cyano-2-fluorobenzyl)oxy)pyridin-2-yl)-2,5-difluorobenzyl)-1-((3R,4S)-4-fluorotetrahydrofuran-3-yl)-1H-benzo[d]imidazole-6-carboxylic Acid]	1.91
CC1(C)COC[C@H]1n1c(Cc2cc(F)c(-c3cccc(OCc4ncc(Cl)cc4F)n3)cc2F)nc2ccc(C(=O)O)cc21 (single isomer, unassigned) [Example 289A]	0.122
CC1(C)COC[C@H]1n1c(Cc2cc(F)c(-c3cccc(OCc4ccc5c(c4)CN(S(C)(=O)=O)C5)n3)cc2F)nc2c(F)cc(C(=O)O)cc21 [Example 240, (S)-2-(2,5-difluoro-4-(6-((2-(methylsulfonyl)isoindolin-5-yl)methoxy)pyridin-2-yl)benzyl)-1-(4,4-dimethyltetrahydrofuran-3-yl)-4-fluoro-1H-benzo[d]imidazole-6-carboxylic acid]	0.127
CC1(C)COCC1n1c(Cc2cc(F)c(-c3nccc(OCc4ccc(Cl)cc4F)n3)cc2F)nc2c(F)cc(C(=O)O)cc21 (centres unmarked) [Example 348, 2-(4-(4-((4-chloro-2-fluorobenzyl)oxy)pyrimidin-2-yl)-2,5-difluorobenzyl)-1-(4,4-dimethyltetrahydrofuran-3-yl)-4-fluoro-1H-benzo[d]imidazole-6-carboxylic acid]	0.55
Cc1cc(Cc2nc3c(F)cc(C(=O)O)cc3n2C[C@@H]2CCO2)c(Cl)cc1-c1ccc(F)c(OCc2ccc(C#N)cc2F)n1 [Example 142, (S)-2-(2-chloro-4-(6-((4-cyano-2-fluorobenzyl)oxy)-5-fluoropyridin-2-yl)-5-methylbenzyl)-4-fluoro-1-(oxetan-2-ylmethyl)-1H-benzo[d]imidazole-6-carboxylic Acid]	0.894
Cc1cc(Cc2nc3ccc(C(=O)O)cc3n2[C@@H]2COCC2(C)C)c(Cl)cc1-c1ccc(F)c(OCc2ccc(C#N)cc2)n1 [Example 135, (S)-2-(2-chloro-4-(6-((4-cyanobenzyl)oxy)-5-fluoropyridin-2-yl)-5-methylbenzyl)-1-(4,4-dimethyltetrahydrofuran-3-yl)-1H-benzo[d]imidazole-6-carboxylic Acid]	0.361
COCCn1c(Cc2cc(C)c(-c3ccc(F)c(OCc4ccc(C#N)cc4F)n3)cc2Cl)nc2c(F)cc(C(=O)O)cc21 [Example 225, 2-(2-chloro-4-(6-((4-cyano-2-fluorobenzyl)oxy)-5-fluoropyridin-2-yl)-5-methylbenzyl)-4-fluoro-1-(2-methoxyethyl)-1H-benzo[d]imidazole-6-carboxylic acid]	7.14
CC1(C)COC[C@H]1n1c(Cc2cc(F)c(-c3cccc(OCc4ccc(Cl)c(F)c4)n3)cc2F)nc2ccc(C(=O)O)cc21 [Example 394, (S)-2-(4-(6-((4-chloro-3-fluorobenzyl)oxy)pyridin-2-yl)-2,5-difluorobenzyl)-1-(4,4-dimethyltetrahydrofuran-3-yl)-1H-benzo[d]imidazole-6-carboxylic acid]	0.243
COCCn1c(Cc2cc(F)c(-c3cccc(OCc4ccc(-c5cn(C)nn5)cc4F)n3)cc2F)nc2ccc(C(=O)O)cc21 [Example 99, 2-(2,5-difluoro-4-(6-((2-fluoro-4-(1-methyl-1H-1,2,3-triazol-4-yl)benzyl)oxy)pyridin-2-yl)benzyl)-1-(2-methoxyethyl)-1H-benzo[d]imidazole-6-carboxylic Acid]	0.6

Continued, values first:

EC50 [nM]	Structure (SMILES)
0.172	CC1(C)COC[C@H]1n1c(Cc2cc(F)c(-c3cccc(OCc4ccc(F)cc4Cl)n3)cc2F)nc2ccc(C(=O)O)cc21 [Example 464, (S)-2-(4-(6-((2-chloro-4-fluorobenzyl)oxy)pyridin-2-yl)-2,5-difluorobenzyl)-1-(4,4-dimethyltetrahydrofuran-3-yl)-1H-benzo[d]imidazole-6-carboxylic acid]
0.434	N#Cc1ccc(COc2cccc(-c3cc(F)c(Cc4nc5ccc(C(=O)O)cc5n4[C@H]4COC[C@H]4OCC(F)F)cc3F)n2)c(F)c1 [Example 541, 2-(4-(6-((4-cyano-2-fluorobenzyl)oxy)pyridin-2-yl)-2,5-difluorobenzyl)-1-((3S,4S)-4-(2,2-difluoroethoxy)tetrahydrofuran-3-yl)-1H-benzo[d]imidazole-6-carboxylic acid]
0.633	CO[C@@H]1CCOC[C@@H]1n1c(Cc2cc(F)c(-c3cccc(OCc4ccc(C#N)cc4F)n3)cc2F)nc2ccc(C(=O)O)cc21 (single isomer, unassigned) [Example 408]
0.621	CC1(C)COC[C@H]1n1c(Cc2cc(F)c(-c3cccc(OCc4ccc(F)c(F)c4F)n3)cc2F)nc2ccc(C(=O)O)cc21 [Example 451, (S)-2-(2,5-difluoro-4-(6-((2,3,4-trifluorobenzyl)oxy)pyridin-2-yl)benzyl)-1-(4,4-dimethyltetrahydrofuran-3-yl)-1H-benzo[d]imidazole-6-carboxylic acid]
0.281	CC1(C)COC[C@H]1n1c(Cc2cc(F)c(-c3cccc(OCc4ccc(C(F)(F)F)cc4C#N)n3)cc2F)nc2ccc(C(=O)O)cc21 [Example 413, (S)-2-(4-(6-((2-cyano-4-(trifluoromethyl)benzyl)oxy)pyridin-2-yl)-2,5-difluorobenzyl)-1-(4,4-dimethyltetrahydrofuran-3-yl)-1H-benzo[d]imidazole-6-carboxylic acid]
0.429	Cn1nnc2ccc(COc3cccc(-c4cc(F)c(Cc5nc6ccc(C(=O)O)cc6n5C[C@@H]5CCO5)cc4F)n3)cc21 [Example 525, (S)-2-(2,5-difluoro-4-(6-((1-methyl-1H-benzo[d][1,2,3]triazol-6-yl)methoxy)pyridin-2-yl)benzyl)-1-(oxetan-2-ylmethyl)-1H-benzo[d]imidazole-6-carboxylic acid]
0.041	C[C@H]1COC[C@H]1n1c(Cc2cc(F)c(-c3ccc(F)c(OCc4ccc(Cl)cc4F)n3)cc2F)nc2ccc(C(=O)O)cc21 [Example 471, 2-(4-(6-((4-chloro-2-fluorobenzyl)oxy)-5-fluoropyridin-2-yl)-2,5-difluorobenzyl)-1-((3S,4R)-4-methyltetrahydrofuran-3-yl)-1H-benzo[d]imidazole-6-carboxylic acid]
0.392	O=C(O)c1ccc2nc(Cc3cc(F)c(-c4cccc(OCc5ccc6ncsc6c5)n4)cc3F)n(C[C@@H]3CCO3)c2c1 [Example 530, (S)-2-(4-(6-(benzo[d]thiazol-6-ylmethoxy)pyridin-2-yl)-2,5-difluorobenzyl)-1-(oxetan-2-ylmethyl)-1H-benzo[d]imidazole-6-carboxylic acid]
0.066	Cn1cc(-c2ccc(COc3cccc(-c4cc(F)c(Cc5nc6ccc(C(=O)O)cc6n5[C@@H]5COCC5(C)C)cc4F)n3)cn2)nn1 [Example 550, (S)-2-(2,5-difluoro-4-(6-((6-(1-methyl-1H-1,2,3-triazol-4-yl)pyridin-3-yl)methoxy)pyridin-2-yl)benzyl)-1-(4,4-dimethyltetrahydrofuran-3-yl)-1H-benzo[d]imidazole-6-carboxylic acid]
0.186	CC1(C)COC[C@H]1n1c(Cc2cc(F)c(-c3ccnc(OCc4ccc(F)cc4)n3)cc2F)nc2ccc(C(=O)O)cc21 [Example 575, (S)-2-(2,5-difluoro-4-(2-((4-fluorobenzyl)oxy)pyrimidin-4-yl)benzyl)-1-(4,4-dimethyltetrahydrofuran-3-yl)-1H-benzo[d]imidazole-6-carboxylic acid]
1.56	COCCn1c(Cc2cc(F)c(-c3cccc(OCc4cnc(-n5nnc6c5CCCC6)cc4Cl)n3)cc2F)nc2ccc(C(=O)O)cc21 [Example 568, 2-(4-(6-((4-chloro-6-(4,5,6,7-tetrahydro-1H-benzo[d][1,2,3]triazol-1-yl)pyridin-3-yl)methoxy)pyridin-2-yl)-2,5-difluorobenzyl)-1-(2-methoxyethyl)-1H-benzo[d]imidazole-6-carboxylic acid]
0.598	COC(=O)N1Cc2ccc(COc3cccc(-c4cc(F)c(Cc5nc6ccc(C(=O)O)cc6n5[C@@H]5COCC5(C)C)cc4F)n3)cc2C1 [Example 529, (S)-2-(2,5-difluoro-4-(6-((2-(methoxycarbonyl)isoindolin-5-yl)methoxy)pyridin-2-yl)benzyl)-1-(4,4-dimethyltetrahydrofuran-3-yl)-1H-benzo[d]imidazole-6-carboxylic acid]
